Assays:
HEK293T-mtkeima cells [1] = experiment: Functional test of mitophagy inducer, direct treatment without CCCP; type: cell-based, human; details: for Ability to induce mitophagy: HEK293T-mtkeima cells, number of cells in which mitophagy occurs/number of total cells
Description: Seeding human embryonic kidney transformed cells HEK293T-mtkeima cells in a 96-well black ELISA Plate at 1.5*10^5 cells/ml, 100 μl per well; after 25 hours, adding UMI-77 and compounds I-1˜I-26 respectively, and setting up 3 replicates; under 37° C., 5% CO2 incubation conditions, taking picture with biotekcytation5 every few hours for a total of 20 hours. Taking the bright field as the focusing channel, and taking 9pictures per well, and processing the pictures by using the instrument software and converting into the degree of mitophagy strength, exemplifying by UMI-77 and Compound I-4, the results are shown in FIG. 1.
Note: The HEK293T-mtkeima cells used in the experiments are HEK293T-mtkeima cells obtained according to the method mentioned in the literature [Cen, X. et al. Nat Commun 11, 5731 (2020).], by using lentiviral packaging technology, and stably expressing mtkeima protein in HEK293T cells. The CCCP used in the experiments is purchased from TargetMol (Item No. T7081).

[2] = In vitro liver microsome stability test (human); type: in vitro ADME; details: human liver microsomes, NADPH, 37° C., 0-45 min
Description: (§1) Selecting Ketanserin as the reference compound. The specific method is as follows:
(§2) Preparing 0.1M K3PO4 (pH 7.4) buffer and 3×NADPH stock solution (6 mM, 5 mg/mL), and preheating in a 37° C. water bath; preparing of test compound and control compound spiking solution: adding 5 μL compound stock solution ([…]) into 95 μL acetonitrile; preparing of 1.5 μM spiking solution in microsomes (0.75 mg/mL): adding 1.5 μL spiking solution and 18.75 μL liver microsomes solution (20 mg/mL) into 479.75 μL K3PO4 buffer; taking 30 μL spiking solution in microsomes to the multi-well plate and incubating at 37° C. for 5 minutes; adding 15 μL NADPH stock solution into each well to start the reaction, and timing; respectively at 0 min, 5 min, 15 min, 30 min and 45 min, adding 150 μL of IS-containing acetonitrile solution to terminate the reaction; shaking for 10 mins and then centrifuging at 6000 rpm for 15 mins; taking 80 μL of the supernatant from each well for LC/MS detection and calculating T1/2.
(§3) Note: The mice and human liver microsomes used in the experiments are purchased from Xenotech.

HEK293T-mtkeima cells [3] = experiment: Selective induction of mitophagy after CCCP-induced mitochondrial damage; type: cell-based, human; details: 5 uM or 10 uM CCCP pre-treatment compared with no CCCP treatment
[4] = In vitro liver microsome stability test (mice); type: in vitro ADME; details: mice liver microsomes, NADPH, 37° C., 0-45 min
Description: as §1, §2, §3

Row | Structure (SMILES) | Ability to induce mitophagy (HEK293T-mtkeima cells [1]) | further results
1 | O=C(O)CSc1cc(NS(=O)(=Nc2ccccc2)c2ccc(Br)cc2)c2ccccc2c1O (centres unmarked) [Compound I-8] | ++ (moderate ability to induce mitophagy (number of cells in which mitophagy occurs/number of total cells is in the range of 0.2~0.3)) | –
2 | CN=S(=O)(c1ccc(Br)cc1)N(C)c1cc(SCC(=O)O)c(O)c2ccccc12 (centres unmarked) [Compound I-9] | ++ (moderate ability to induce mitophagy (number of cells in which mitophagy occurs/number of total cells is in the range of 0.2~0.3)) | –
3 | CN=S(=O)(Nc1cc(SCc2nnc[nH]2)c(O)c2ccccc12)c1ccc(Br)cc1 (centres unmarked) [Compound I-13] | ++ (moderate ability to induce mitophagy (number of cells in which mitophagy occurs/number of total cells is in the range of 0.2~0.3)) | –
4 | CN=S(=O)(Nc1cc(SCC(=O)O)c(O)c2ccccc12)c1ccc(-c2ccccc2)cc1 (centres unmarked) [Compound I-18] | ++ (moderate ability to induce mitophagy (number of cells in which mitophagy occurs/number of total cells is in the range of 0.2~0.3)) | –
5 | CN=S(=O)(Nc1cc(SCC(=O)O)c(O)c2ccccc12)c1cccs1 (centres unmarked) [Compound I-21] | +++ (strong ability to induce mitophagy (number of cells in which mitophagy occurs/number of total cells >0.30)) | –
6 | O=C(O)CSc1cc(N2CCN=S2(=O)c2ccc(Br)cc2)c2ccccc2c1O (centres unmarked) [Compound I-10] | ++ (moderate ability to induce mitophagy (number of cells in which mitophagy occurs/number of total cells is in the range of 0.2~0.3)) | –
7 | CN=S(=O)(Nc1cc(SCC(=O)O)c(O)c2ccccc12)c1ccc(C(F)(F)F)cc1 (centres unmarked) [Compound I-19] | +++ (strong ability to induce mitophagy (number of cells in which mitophagy occurs/number of total cells >0.30)) | –
8 | CN=S(=O)(Nc1cc(SCC(=O)O)c(O)c2ccccc12)c1ccc2ccccc2c1 (centres unmarked) [Compound I-20] | ++ (moderate ability to induce mitophagy (number of cells in which mitophagy occurs/number of total cells is in the range of 0.2~0.3)) | –
9 | CN=S(=O)(Nc1cc(SCC(=O)O)c(OC(C)=O)c2ccccc12)c1ccc(Br)cc1 (centres unmarked) [Compound I-14] | ++ (moderate ability to induce mitophagy (number of cells in which mitophagy occurs/number of total cells is in the range of 0.2~0.3)) | –
10 | O=C(O)CSc1cc(NS(=O)(=O)c2ccc(Br)cc2)c2ccccc2c1O [UMI-77, reference compound] | + (weak ability to induce mitophagy (number of cells in which mitophagy occurs/number of total cells is in the range of 0.1~0.2)) | Liver microsome stability [2]: unstable; Selective induction of autophagy in damaged mitochondria (FIG. 2) (HEK293T-mtkeima cells [3]): unable to selectively induce autophagy in damaged mitochondria; Liver microsome stability [4]: unstable
11 | O=C(O)CSc1cc(NS(=O)(=NC2COC2)c2ccc(Br)cc2)c2ccccc2c1O (centres unmarked) [Compound I-6] | +++ (strong ability to induce mitophagy (number of cells in which mitophagy occurs/number of total cells >0.30)) | –
12 | O=C(O)CSc1cc(N(c2ccccc2)S(=O)(=O)c2ccc(Br)cc2)c2ccccc2c1O [Compound I-3] | ++ (moderate ability to induce mitophagy (number of cells in which mitophagy occurs/number of total cells is in the range of 0.2~0.3)) | –
13 | CN=S(=O)(Nc1cc(SCC(=O)O)c(O)c2ccccc12)c1ccc(Oc2ccccc2)cc1 (centres unmarked) [Compound I-17] | +++ (strong ability to induce mitophagy (number of cells in which mitophagy occurs/number of total cells >0.30)) | –
14 | CN=S(=O)(Nc1cc(SCC(=O)O)c(O)c2ccccc12)c1ccc(Br)cc1 (centres unmarked) [Compound I-4] | +++ (strong ability to induce mitophagy (number of cells in which mitophagy occurs/number of total cells >0.30)) | Strength of mitophagy induction compared with UMI-77 (FIG. 1) (HEK293T-mtkeima cells [1]; cells not treated with CCCP): induces mitophagy more strongly than UMI-77; Liver microsome stability [2]: relatively superior stability; Liver microsome stability [4]: relatively superior stability
15 | CN=S(=O)(Nc1cc(SCc2nn[nH]n2)c(O)c2ccccc12)c1ccc(Br)cc1 (centres unmarked) [Compound I-12] | +++ (strong ability to induce mitophagy (number of cells in which mitophagy occurs/number of total cells >0.30)) | –
16 | O=C(O)CSc1cc(NS(=O)(=NC2CC2)c2ccc(Br)cc2)c2ccccc2c1O (centres unmarked) [Compound I-5] | +++ (strong ability to induce mitophagy (number of cells in which mitophagy occurs/number of total cells >0.30)) | –
17 | O=C(O)CSc1cc(N2CCCN=S2(=O)c2ccc(Br)cc2)c2ccccc2c1O (centres unmarked) [Compound I-11] | ++ (moderate ability to induce mitophagy (number of cells in which mitophagy occurs/number of total cells is in the range of 0.2~0.3)) | –
18 | CN=S(=O)(Nc1cc(SCC(=O)O)c(O)c2ccccc12)c1cccc(-c2ccccc2)c1 (centres unmarked) [Compound I-22] | ++ (moderate ability to induce mitophagy (number of cells in which mitophagy occurs/number of total cells is in the range of 0.2~0.3)) | –
19 | CN(c1cc(SCC(=O)O)c(O)c2ccccc12)S(=O)(=O)c1ccc(Br)cc1 [Compound I-1] | +++ (strong ability to induce mitophagy (number of cells in which mitophagy occurs/number of total cells >0.30)) | Liver microsome stability [2]: relatively superior stability; Selective induction of autophagy in damaged mitochondria (FIG. 2) (HEK293T-mtkeima cells [3]): more likely to induce autophagy in damaged mitochondria; Liver microsome stability [4]: relatively superior stability
20 | O=C(O)CSc1cc(N(CCO)S(=O)(=O)c2ccc(Br)cc2)c2ccccc2c1O [Compound I-2] | ++ (moderate ability to induce mitophagy (number of cells in which mitophagy occurs/number of total cells is in the range of 0.2~0.3)) | –
